Source: paper PMC9411207, “Designed peptides as nanomolar cross-amyloid inhibitors acting via supramolecular nanofiber co-assembly” (Nature Communications, 2022)
Where two headings read alike, the source gives them in different places. Square brackets hold non-standard residues; d marks the D form. Peptide text beside a SMILES is read from it. NMeF = CN[C@@H](Cc1ccccc1)C(=O)O; NMeL = CN[C@@H](CC(C)C)C(=O)O; NMeV = CN[C@H](C(=O)O)C(C)C; Nle = CCCC[C@H](N)C(=O)O

What was measured:
[1] = tested on: PC12 cells; assay: MTT reduction assay: cytotoxicity of preformed (TAMRA-)Aβ42 oligomers with or without Nle3-VF; format: cell-based; settings: TAMRA-oAb42 (2 h); mean, n = 4
Procedure: Preformed (TAMRA-)oAβ42 and their mixtures with Nle3-VF were then incubated for an additional 2 h (37 °C, shaking 500 rpm; conditions as for the ThT binding assay). Incubation with the cells and the MTT reduction assay were performed as above. Statistical analysis (Supplementary Fig. 27d) was performed by one-way ANOVA and Bonferroni (software: OriginPro 2021).

[2] = biological target: T1, N-terminal fluorescein-labeled IAPP (Homo sapiens, UniProt P10997); assay: Fluorescence spectroscopic titration of Fluos-IAPP with ACMs; format: binding
T1 construct: made in house; host or cells: chemical synthesis (Fmoc-SPPS)
T1 sequence (P10997 34-70 limits assumed): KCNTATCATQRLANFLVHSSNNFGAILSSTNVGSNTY
Procedure: (§1) Fluorescence spectroscopic studies were performed with a Jasco FP-6500 fluorescence spectrophotometer (software: Spectra Manager V1.54.03 (Build 1)) using previously established protocols[12],[20],[25],[26],[32]. Briefly, excitation was at 492 nm and spectra were measured between 500 and 600 nm. All titrations were performed in freshly made solutions of synthetic N-terminal fluorescently-labeled peptide (5 nM) and various amounts of unlabeled peptide in 10 mM sodium phosphate buffer, pH 7.4 (1% HFIP) within 2–5 min following solution preparation as described in refs. [20], [25], [26]. Under these experimental conditions, freshly made solutions of Fluos-IAPP and FITC-Aβ42 (5 nM) consist mostly of monomers[25],[26],[32] and the same was found for Fluos-ACMs (5 nM) (e.g., Supplementary Fig. 5e). Apparent binding affinities (app. KDs) were estimated by using 1/1 binding models (software: OriginPro 2016G, Origin 2021, and GraFit (v.5)) as described in refs. [20], [25], [26], [32]. However, due to the high self-assembly propensities of involved peptides, more complex models might also apply. Determined app. KDs are means (±SD) from three binding curves derived from three independent titration assays.

[3] = biological target: T2, N-terminal FITC-labeled Aβ42 (Homo sapiens, UniProt P05067); assay: Fluorescence spectroscopic titration of FITC-Aβ42 with ACMs; format: binding
T2 construct: the 40(42)-residue peptide Aβ40(42); purchased Bachem
Procedure: as §1

[4] = tested on: RIN5fm cells; assay: MTT reduction assay: effects of peptides on formation of cell-damaging IAPP assemblies (incl. IC50 titrations); format: cell-based, rat; settings: for IC50: 24 h; for effect on IAPP cytotoxicity (in words): MTT reduction in RIN5fm cells, solutions of the ThT assay
Procedure: Briefly, cells were cultivated and platted in 96-well plates as described in ref. [68]. Aliquots of solutions used for the ThT binding assays (see “ThT binding assays”) were diluted with cell medium at the indicated incubation time points (24 h or 7 days) and added to the cells at the indicated final concentrations. Following incubation with the cells for ~20 h (37 °C, humidified atmosphere, 5% CO2), cell damage was assessed by measuring cellular MTT reduction as described[32],[68]. IC50 values were determined as described[20],[21],[32].

[5] = app. KD (±SD) of ACM/Aβ42 interactions, titration of FITC-Aβ42 (5 nM; pH 7.4) with ACMs, means (±SD) from three binding curves
[6] = SF 6, Mean values of the 3 curves, read-out: App. Kd
[7] = titration of Fluos-IAPP (5 nM; pH 7.4, 10 mM sodium phosphate, 1% HFIP) with ACMs, 1/1 binding model, means (±SD) from three binding curves
[8] = Table 2, mean values of the 3 curves, read-out: App. Kd

T2 sequence (P05067 672-713 limits assumed): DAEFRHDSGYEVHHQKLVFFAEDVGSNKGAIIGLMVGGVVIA

Compound	MTT reduction (% control) [1]	Kd ([2]; Fig. 2a right panel, mean values of the 3 curves, read-out: App. Kd)	Kd [3, 5]	Kd ([3]; fluorescence titration, emission at 519 nm, Mean values of the 3 curves, read-out: App. Kd)	IC50 [4]	effect on IAPP cytotoxicity (in words) [4]	Kd [2, 6]	Kd [2, 7]	Kd [3, 8]	Kd [2]
TAMRA-oAb42	66.7213 % control	–	–	–	–	–	–	–	–	–
CCCC[C@H](NC(=O)[C@H](CC(=O)O)NC(=O)[C@H](CCC(=O)O)NC(=O)[C@H](C)NC(=O)[C@H](Cc1ccccc1)N(C)C(=O)[C@H](Cc1ccccc1)NC(=O)[C@H](C(C)C)N(C)C(=O)[C@H](CC(C)C)NC(=O)[C@H](CCCCN)NC(=O)[C@@H](N)CCC(N)=O)C(=O)N[C@@H](CCCC)C(=O)N[C@@H](CCCC)C(=O)N[C@@H](CC(N)=O)C(=O)N[C@@H](CCCCN)C(=O)NCC(=O)N[C@@H](C)C(=O)N[C@H](C(=O)N[C@H](C(=O)NCC(=O)N[C@@H](CC(C)C)C(=O)N[C@@H](CCCC)C(=O)N[C@H](C(=O)NCC(=O)NCC(=O)N[C@H](C(=O)N[C@H](C(=O)O)C(C)C)C(C)C)C(C)C)[C@@H](C)CC)[C@@H](C)CC [Nle3-VF] (H-QKL[NMeV]F[NMeF]AED[Nle][Nle][Nle]NKGAIIGL[Nle]VGGVV-OH)	–	69.5 nM	14.5 nM	14.5 nM	65 nM	fully suppressed	–	–	–	–
CCCC[C@H](NC(=O)[C@H](CC(C)C)NC(=O)CNC(=O)[C@@H](NC(=O)[C@@H](NC(=O)[C@H](C)NC(=O)CNC(=O)[C@H](CCCCN)NC(=O)[C@H](CC(N)=O)NC(=O)[C@H](CC(C)C)NC(=O)[C@H](CC(C)C)NC(=O)[C@H](CC(C)C)NC(=O)[C@H](CC(=O)O)NC(=O)[C@H](CCC(=O)O)NC(=O)[C@H](C)NC(=O)[C@H](Cc1ccccc1)N(C)C(=O)[C@H](Cc1ccccc1)NC(=O)[C@H](C(C)C)N(C)C(=O)[C@H](CC(C)C)NC(=O)[C@H](CCCCN)NC(=O)[C@@H](N)CCC(N)=O)[C@@H](C)CC)[C@@H](C)CC)C(=O)N[C@H](C(=O)NCC(=O)NCC(=O)N[C@H](C(=O)N[C@H](C(=O)O)C(C)C)C(C)C)C(C)C [L3-VF] (H-QKL[NMeV]F[NMeF]AEDLLLNKGAIIGL[Nle]VGGVV-OH)	–	–	38 nM	–	112 nM	–	77.3 nM	77.3 nM	38 nM	–
CCCC[C@H](NC(=O)[C@H](CC(C)C)NC(=O)CNC(=O)[C@@H](NC(=O)[C@@H](NC(=O)[C@H](C)NC(=O)CNC(=O)[C@H](CCCCN)NC(=O)[C@H](CC(N)=O)NC(=O)[C@H](Cc1ccccc1)NC(=O)[C@H](Cc1ccccc1)NC(=O)[C@H](Cc1ccccc1)NC(=O)[C@H](CC(=O)O)NC(=O)[C@H](CCC(=O)O)NC(=O)[C@H](C)NC(=O)[C@H](Cc1ccccc1)NC(=O)[C@H](Cc1ccccc1)N(C)C(=O)[C@@H](NC(=O)[C@H](CC(C)C)N(C)C(=O)[C@H](CCCCN)NC(=O)[C@@H](N)CCC(N)=O)C(C)C)[C@@H](C)CC)[C@@H](C)CC)C(=O)N[C@H](C(=O)NCC(=O)NCC(=O)N[C@H](C(=O)N[C@H](C(=O)O)C(C)C)C(C)C)C(C)C [F3-LF] (H-QK[NMeL]V[NMeF]FAEDFFFNKGAIIGL[Nle]VGGVV-OH)	–	–	431 nM	–	41.7 nM	–	37.6 nM	37.6 nM	431 nM	–
CCCC[C@H](NC(=O)[C@H](CC(=O)O)NC(=O)[C@H](CCC(=O)O)NC(=O)[C@H](C)NC(=O)[C@H](Cc1ccccc1)NC(=O)[C@H](Cc1ccccc1)N(C)C(=O)[C@@H](NC(=O)[C@H](CC(C)C)N(C)C(=O)[C@H](CCCCN)NC(=O)[C@@H](N)CCC(N)=O)C(C)C)C(=O)N[C@@H](CCCC)C(=O)N[C@@H](CCCC)C(=O)N[C@@H](CC(N)=O)C(=O)N[C@@H](CCCCN)C(=O)NCC(=O)N[C@@H](C)C(=O)N[C@H](C(=O)N[C@H](C(=O)NCC(=O)N[C@@H](CC(C)C)C(=O)N[C@@H](CCCC)C(=O)N[C@H](C(=O)NCC(=O)NCC(=O)N[C@H](C(=O)N[C@H](C(=O)O)C(C)C)C(C)C)C(C)C)[C@@H](C)CC)[C@@H](C)CC [Nle3-LF] (H-QK[NMeL]V[NMeF]FAED[Nle][Nle][Nle]NKGAIIGL[Nle]VGGVV-OH)	–	–	11.1 nM	–	82.1 nM	fully suppressed	55.4 nM	–	11.1 nM	55.4 nM
CCCC[C@H](NC(=O)[C@H](CC(C)C)NC(=O)CNC(=O)[C@@H](NC(=O)[C@@H](NC(=O)[C@H](C)NC(=O)CNC(=O)[C@H](CCCCN)NC(=O)[C@H](CC(N)=O)NC(=O)[C@H](Cc1ccccc1)NC(=O)[C@H](Cc1ccccc1)NC(=O)[C@H](Cc1ccccc1)NC(=O)[C@H](CC(=O)O)NC(=O)[C@H](CCC(=O)O)NC(=O)[C@H](C)NC(=O)[C@H](Cc1ccccc1)N(C)C(=O)[C@H](Cc1ccccc1)NC(=O)[C@H](C(C)C)N(C)C(=O)[C@H](CC(C)C)NC(=O)[C@H](CCCCN)NC(=O)[C@@H](N)CCC(N)=O)[C@@H](C)CC)[C@@H](C)CC)C(=O)N[C@H](C(=O)NCC(=O)NCC(=O)N[C@H](C(=O)N[C@H](C(=O)O)C(C)C)C(C)C)C(C)C [F3-VF] (H-QKL[NMeV]F[NMeF]AEDFFFNKGAIIGL[Nle]VGGVV-OH)	–	–	161 nM	–	78.5 nM	–	15 nM	15 nM	161 nM	–
CCCC[C@H](NC(=O)[C@H](CC(C)C)NC(=O)CNC(=O)[C@@H](NC(=O)[C@@H](NC(=O)[C@H](C)NC(=O)CNC(=O)[C@H](CCCCN)NC(=O)[C@H](CC(N)=O)NC(=O)[C@H](CC(C)C)NC(=O)[C@H](CC(C)C)NC(=O)[C@H](CC(C)C)NC(=O)[C@H](CC(=O)O)NC(=O)[C@H](CCC(=O)O)NC(=O)[C@H](C)NC(=O)[C@H](Cc1ccccc1)NC(=O)[C@H](Cc1ccccc1)N(C)C(=O)[C@@H](NC(=O)[C@H](CC(C)C)N(C)C(=O)[C@H](CCCCN)NC(=O)[C@@H](N)CCC(N)=O)C(C)C)[C@@H](C)CC)[C@@H](C)CC)C(=O)N[C@H](C(=O)NCC(=O)NCC(=O)N[C@H](C(=O)N[C@H](C(=O)O)C(C)C)C(C)C)C(C)C [L3-LF] (H-QK[NMeL]V[NMeF]FAEDLLLNKGAIIGL[Nle]VGGVV-OH)	–	–	–	–	133 nM	fully suppressed	143 nM	–	2.64 nM	–
